Results on two molecules are retold here after patent US20130005812A1, “METHOD FOR ALLEVIATING ALLERGIC ASTHMA AND ALLERGIC RESPONSE BY USING BITTER MELON COMPOSITION” (NATIONAL TAIWAN UNIVERSITY, priority 2011, published 2013).

Common to all, as to format: in vivo, BALB/c mice
A short description of series [1]: Growth and feed intake of OVA-sensitized mice. The procedure:
(§1) Inbred female BALB/c mice (4 weeks old) were purchased from the Laboratory Animal Center, National Taiwan University and housed in a room with constant temperature of 23±2° C. The animal room was kept on a 12-h light and 12-h dark cycle. The mice were housed and kept on free diet and water to acclimatize before feeding the experimental diet. Diet ingestions are recorded every 3˜4 days, and mice body weight were recorded every week. When mice were in 8 week old, the mice were sensitized and challenged to induce allergic reaction at week 8, 10 and 12 by an intraperitonal injection (i.p.) of antigen containing ovalbumin antigen and adjuvant (Imject® Alum). Blood samples were collected on two days before injection and on two weeks after last injection for analysis of OVA-specific antibodies. Mice were divided in five groups based on OVA-specific IgE antibody and body weight, namely OVA-oil group (the control group), OVA-BGP group (feed containing 5% of freeze dried bitter melon powder), OVA-CLN group (tube feeding containing 35 mg CLN), OVA-Pred (prednisolone, the positive control group), and PBS-oil (the non-sensitized group), respectively. Mice diet was based on AIN-76 formulation (feed composition referred to J. Nutri. 107: 1340-1384, 1977). Administration of steroid prednisolone by tube feeding started 4 days before AHR induction and last to the day sacrificed. After 4 days of feeding, mice were challenged with 5% aerosol of OVA solution, while the PBS-oil group was administered with aerosol PBS. Change of mice airway resistance was measured after 13 days of feeding, and mice were sacrificed on day 16.
BALB/c mice were sensitized every other week for three times. Two weeks before the last sensitization mice were divided into five groups according to OVA-specific IgE and body weight, then different experimental diet were provided for 16 days. […] In the aspect of daily ingestion, no difference was observed among these mice groups.

The nature of series [2]: Organ weight and relative organ weight of OVA-sensitized mice. The procedure:
as §1
After 16 days of feeding, the absolute weight of heart of OVA-BGP treated mice was less than the OVA-oil treated mice. […] There was no difference between the OVA-CLN group and control group. […] The absolute weight and relative weight of lung of PBS-oil mice group were lower than sensitized mice groups.

The subject of series [3] is OVA-sensitized mice. The series can be described thus: Airway hyperresponsiveness (Penh, methacholine challenge, whole-body plethysmograph). As to conditions: Mch challenge 12.5 mg/ml or higher; after 13 days feeding; FIG. 2. How it is done: Inbred female BALB/c mice (4 weeks old) were purchased from the Laboratory Animal Center, National Taiwan University and housed in a room with constant temperature of 23±2° C. The animal room was kept on a 12-h light and 12-h dark cycle. The mice were housed and kept on free diet and water to acclimatize before feeding the experimental diet. Diet ingestions are recorded every 3˜4 days, and mice body weight were recorded every week. When mice were in 8 week old, the mice were sensitized and challenged to induce allergic reaction at week 8, 10 and 12 by an intraperitonal injection (i.p.) of antigen containing ovalbumin antigen and adjuvant (Imject® Alum). […] Change of mice airway resistance was measured after 13 days of feeding, and mice were sacrificed on day 16. […]
After an inhaled antigen challenge, airway resistance of the mice were tested the following day using Buxco system (Biosystem XA, Buxco Electronics Inc. Sharon, Conn., USA), in which the differential pressure transducer (Buxco) and preamplifier (MAX II, Buxco) were used to collect change information of mice respiratory and to calculate lung Penh value (Penh, enhanced pause). […] After excess aerosol was evacuated, an average Penh value per minute was recorded. […] The same challenge process was performed at each concentration, and an average Penh value per minute was recorded after 3 mins after each challenge. […]

Series [4] has as its system OVA-sensitized mice. As to the kind of experiment: Cytokine, eotaxin and PGE2 level in BALF (ELISA). As to conditions: day 16; mean ± SD. How it is done: as §1
After mice were sacrificed, fur and skin in the mice neck were incised and muscle surrounding the trachea was tear open to expose the trachea. A small hole was made on the trachea near the head with scissors to intubate tracheal tubing. After intubation, their lungs and airways were lavaged with […] of sterile PBS. Two ml of bronchoalveolar lavage fluid (BALF) was centrifuged at 1500 rpm for 7 mins at 4° C. The supernatant (BALF) was collected and stored at −80° C. for cytokine concentration determination. The cell pellet was washed with HBSS buffer twice and re-suspended in 10% FBS/RPMI medium. Total leukocytes were counted with a hemocytometer using trypan blue dye exclusion method. After the cell concentration was adjusted to 5×10^5 cell/ml, aliquots of 100 μl total cells were centrifuged with cytospin at 500 rpm for 2 mins and then stained with Liu A for 30 seconds. After excess stain was washed off and air dried, the cells were stained with Liu B for 5 seconds. Slides were air-dried and sealed with Arabic gum. […] Two hundreds of leukocytes were counted on each slide, which includes four different cells, eosinophil, neutrophil, lymphocyte and monocyte.
BD Pharmingen System was provided as an example. Cytokine concentration was determined by ABC (avidin-biotin conjugated system) ELISA method. Primary antobiody was added to the 96-microwell plate wells and incubated at 4° C. overnight. After incubation, plates were washed four times with PBST buffer. To block non-specific binding, block buffer were added to each well and the plates were incubated at room temperature for 1 h. After incubation, plates were washed five times with ELISA wash buffer. Appropriately diluted samples or standard solution were then added to the 96-microwell plate wells and the plates were incubated at room temperature for 2˜3 h. After incubation, plates were washed with buffer six times then secondary antibody for detection was added to each well. Plates were incubated for another 1 h. After incubation, plates were washed seven times with ELISA wash buffer. Streptavidin-HRP (horseradish peroxidase) was added to each well and the reaction was allowed to react for 30 mins. After reaction, the plates were washed with ELISA buffer eight times and then HRP-substrate solution was added to the 96-microwell plate wells. […]
(An ELISA detects its analyte on a solid surface through an enzyme-linked reagent.)

The subject of series [5] is OVA-sensitized mice. As to the kind of experiment: Leukocyte numbers in BALF. As to conditions: FIG. 3A-3B. The procedure:
Inbred female BALB/c mice (4 weeks old) were purchased from the Laboratory Animal Center, National Taiwan University and housed in a room with constant temperature of 23±2° C. The animal room was kept on a 12-h light and 12-h dark cycle. The mice were housed and kept on free diet and water to acclimatize before feeding the experimental diet. Diet ingestions are recorded every 3˜4 days, and mice body weight were recorded every week. When mice were in 8 week old, the mice were sensitized and challenged to induce allergic reaction at week 8, 10 and 12 by an intraperitonal injection (i.p.) of antigen containing ovalbumin antigen and adjuvant (Imject® Alum). Blood samples were collected on two days before injection and on two weeks after last injection for analysis of OVA-specific antibodies. […] Change of mice airway resistance was measured after 13 days of feeding, and mice were sacrificed on day 16.
After mice were sacrificed, fur and skin in the mice neck were incised and muscle surrounding the trachea was tear open to expose the trachea. […] Total leukocytes were counted with a hemocytometer using trypan blue dye exclusion method. […] Two hundreds of leukocytes were counted on each slide, which includes four different cells, eosinophil, neutrophil, lymphocyte and monocyte.

For series [6], the system named is splenocytes of OVA-sensitized mice. As to the kind of experiment: Cytokine secretion by OVA-specific stimulated splenocytes ex vivo. As to conditions: mean ± SD. How it is done: as §1
Mice were sacrificed and their spleens were aseptically removed and suspended in 3 cm incubation dish containing 3 ml TCM/RPMI solution. Spleen tissue was minced with rear end of syringe and the upper layer cell suspension was collected and placed in 15 ml centrifuge tube. Another 3 ml HBSS buffer was added to wash the dish and residual cells were collected. Cell suspensions were centrifuged at 1500 rpm for 10 mins Supernatant was discard and the precipitated cells were re-suspend in ACK lysing buffer. After 1 minute, HBSS buffer was added to the suspension and then centrifuged at 1500 rpm for 10 mins Cell pellet was washed with HBSS buffer for 3 times. 2 ml of TCM/RPMI medium was added to re-suspend the cells. Cell number was counted and adjusted to 1×10^7 cell/ml. 500 μl of the cell suspension was added to 48 well plates. […] After 48 hours incubation, supernatants were collected and stored at −80° C.
BD Pharmingen System was provided as an example. Cytokine concentration was determined by ABC (avidin-biotin conjugated system) ELISA method. Primary antobiody was added to the 96-microwell plate wells and incubated at 4° C. overnight. After incubation, plates were washed four times with PBST buffer. To block non-specific binding, block buffer were added to each well and the plates were incubated at room temperature for 1 h. After incubation, plates were washed five times with ELISA wash buffer. Appropriately diluted samples or standard solution were then added to the 96-microwell plate wells and the plates were incubated at room temperature for 2˜3 h. After incubation, plates were washed with buffer six times then secondary antibody for detection was added to each well. Plates were incubated for another 1 h. After incubation, plates were washed seven times with ELISA wash buffer. […] The plates were measured the absorbance at 405 nm by ELISA reader.

Where [7] appears, read: after 16 days feeding, mean ± SD.

Take `CCCC/C=C/C=C/C=C\CCCCCCCC(=O)O` [OVA-CLN, Conjugated linolenic acid]: the “Initial Body weight” value in series [1] (14 week-old, before experimental feeding, mean ± SD) stood at 22.7 ± 1.30 g. Besides, in series [1] (16 week-old, after 16 days feeding, mean ± SD), the “Final Body Weight” value was 22.0 ± 1.52 g. For the same molecule, in series [1] (16 days feeding, in words), the “Effect on mice growth (body weight)” value is recorded as “did not affect mice growth”. Also, the “Feed Intake” value in series [1] (mean ± SD) was determined as 2.99 ± 0.31 g/day. Further, in series [2] (setting [7]), the Heart absolute weight stood at 0.12 ± 0.02 g, the Heart relative weight is 0.56 ± 0.06%, the Kidney absolute weight came to 0.29 ± 0.01 g and the Kidney relative weight amounted to 1.30 ± 0.05%. In series [2] (setting [7]), the Liver absolute weight was found to be 1.28 ± 0.15 g, the Liver relative weight came to 5.80 ± 0.38%, the Lung absolute weight was found to be 0.48 ± 0.08 g and the Lung relative weight was found to be 2.21 ± 0.46%. Besides, in series [2] (setting [7]), the Spleen absolute weight is 0.080 ± 0.026 g and the Spleen relative weight is on record as 0.37 ± 0.12%. Moreover, the “Airway hyperresponsiveness (Penh) vs OVA-oil group” value in the series on OVA-sensitized mice [3] is listed as “alleviation of AHR”. In the series with OVA-sensitized mice [4], the “Eotaxin in BALF” value is given as 27.3 ± 8.5 pg/mL, the “IL-1β in BALF” value was 21.0 ± 9.5 pg/mL, the “IL-4 in BALF” value is recorded as 39.1 ± 33.9 pg/mL and the “IL-5 in BALF” value worked out at 326 ± 183 pg/mL. Besides, in the series with OVA-sensitized mice [4], the “IL-6 in BALF” value came to 12.2 ± 27.8 pg/mL, the “IL-13 in BALF” value is reported as 254 ± 75 pg/mL, the “PGE2 in BALF” value came to 17.2 ± 16.1 ng/mL and the “TNF-α in BALF” value was found to be 64.5 ± 29.3 pg/mL. In addition, the “Eosinophils in BALF vs OVA-oil group” value in the series on OVA-sensitized mice [5] is on record as “less eosinophils infiltration”.

On to `C[C@]12C=CC(=O)C=C1CC[C@@H]1[C@@H]2[C@@H](O)C[C@@]2(C)[C@H]1CC[C@]2(O)C(=O)CO` [OVA-Pred, prednisolone], for which, in series [2] (in words), the “Relative weight of liver vs OVA-oil group” value is “significant lower”. Besides, the “Airway hyperresponsiveness (Penh) vs OVA-oil group” value with OVA-sensitized mice [3] is “alleviation of AHR”. Further, the “Total leukocyte number in BALF vs OVA-oil group” value in the series with OVA-sensitized mice [5] is given as “less than those in the OVA-oil group”. In series [6], the “IFN-γ secretion by splenocytes” value is recorded as 110 ± 50 pg/mL, the “IL-2 secretion by splenocytes” value is given as 66.9 ± 20.9 pg/mL, the “IL-4 secretion by splenocytes” value is on record as 33.4 ± 14.5 pg/mL and the “IL-5 secretion by splenocytes” value turned out to be 2.12 ± 1.85 ng/mL. Also, the “IL-13 secretion by splenocytes” value in series [6] is given as 322 ± 118 pg/mL.
